Experimental data from US6444829B1, “Pyrrolidine compounds” (Hoffmann-La Roche Inc., priority 2000, dated 2002).

Compound: CC(=O)N(Cc1ccccc1)NC(=O)[C@@H]1C[C@@H](S)CN1S(=O)(=O)c1ccc2ccccc2c1
- melting point: 64 °C
